Measurements published in PMC5190008, “BO-1055, a novel DNA cross-linking agent with remarkable low myelotoxicity shows potent activity in sarcoma models” (Oncotarget, 2016).

How the values were obtained:
[1] = tested on: Ewing sarcoma cell lines; assay: Alamar Blue cell proliferation assay; format: cell-based, human
Method: (§1) AlamarBlue® assay (Invitrogen, Carlsbad, CA, USA) was performed to evaluate anti-proliferative activity of the drugs in cell lines and primary cells. Cells were plated in 96-well plates ([…] in 200 μL of medium). After 12 h, one of the previously mentioned drugs was added to each well at the specified concentration and incubated for 72 h. At the end of the incubation period, 20 μL of stock solution (0.312 mg/mL) of the Alamar Blue was added to each well. The absorbance was measured using the Synergy H1 hybrid multi-mode microplate reader (BioTek, USA). The drug effect was quantified as the percentage of control absorbance at 540 nm and 585 nm. Optical density was determined for 3 replicates per treatment condition and cell proliferation in drug-treated cells was normalized to their respective controls. All experiments were performed in triplicate.
(§2) Data are presented as mean±S.E.M. of at least three independent experiments done in triplicate. […] Combination index (CI) values, as calculated by CompuSyn software (Chou and Martin, 2007), were used to evaluate the interaction between BO-1055 and a second drug (Topotecan, SN38, Doxorubicin or PU-H71). The Chou-Talalay method was used to quantify the synergism (CI < 1), additive effect (CI = 1) and antagonism (CI > 1) of various drug combinations.

[2] = tested on: rhabdomyosarcoma cell lines; assay: Alamar Blue cell proliferation assay; format: cell-based, human
Method: as §1, §2

[3] = tested on: A204 cells; assay: Alamar Blue cell proliferation assay; format: cell-based; conditions: Homo sapiens; A204, 72 h drug exposure
Method: as §1
(§3) Data are presented as mean±S.E.M. of at least three independent experiments done in triplicate. The comparison of means between treated and control mice was performed using two-tailed T-test or ANOVA (for more than two groups) as implemented in GraphPad Prism (version 4; GraphPad Software). Graphpad Prism software was used to plot concentration-effect curves and determine the drug concentration that inhibited the growth of cell lines by 50% compared to the control (IC50). A p-value of 0.05 or less was considered significant. Combination index (CI) values, as calculated by CompuSyn software (Chou and Martin, 2007), were used to evaluate the interaction between BO-1055 and a second drug (Topotecan, SN38, Doxorubicin or PU-H71). The Chou-Talalay method was used to quantify the synergism (CI < 1), additive effect (CI = 1) and antagonism (CI > 1) of various drug combinations.

[4] = tested on: A673 cells; assay: Alamar Blue cell proliferation assay; format: cell-based; conditions: Homo sapiens; A673, 72 h drug exposure
Method: as §1, §3

[5] = tested on: DSRCT cell lines; assay: Alamar Blue cell proliferation assay; format: cell-based; conditions: Homo sapiens
Method: as §1, §3

[6] = tested on: H526 cells; assay: Alamar Blue cell proliferation assay; format: cell-based; conditions: Homo sapiens, NCI-H526; H526 (small cell lung cancer)
Method: as §1, §3

[7] = tested on: OSA cells; assay: Alamar Blue cell proliferation assay; format: cell-based; conditions: Homo sapiens, 72 h drug exposure
Method: as §1, §3

[8] = tested on: RH30 cells; assay: Alamar Blue cell proliferation assay; format: cell-based; conditions: Homo sapiens; RH30, 72 h drug exposure
Method: as §1, §3

[9] = tested on: SAOS cells; assay: Alamar Blue cell proliferation assay; format: cell-based; conditions: Homo sapiens, 72 h drug exposure
Method: as §1, §3

[10] = tested on: TC32 cells; assay: Alamar Blue cell proliferation assay; format: cell-based; conditions: Homo sapiens, TC-32; TC32, 72 h drug exposure
Method: as §1, §3

[11] = tested on: U2OS cells; assay: Alamar Blue cell proliferation assay; format: cell-based; conditions: Homo sapiens, 72 h drug exposure
Method: as §1, §3

[12] = tested on: osteosarcoma cell lines; assay: Alamar Blue cell proliferation assay; format: cell-based; conditions: Homo sapiens
Method: as §1, §3

[13] = tested on: A673 spheroids; assay: Spheroid assay in 3D culture (methylcellulose); format: cell-based, human
Method: A673 cells were seeded on flat bottom non attachment 24 well plates (1000 cells/well) in triplicate using 1.2 % methylcellulose (Dow Chemical, Waterloo, NY) mixed with 20% FCS and specified concentrations of BO-1055 or 4HC as shown in Figure 1D. Samples were incubated at 37°C / 5 % CO2 and colonies were scored 14 days after plating.

[14] = tested on: A673 cells; assay: Annexin V-APC/7-AAD apoptosis flow cytometry; format: cell-based, human; conditions: A673, 48 h, 1μM
Text: In order to quantify the apoptosis ratio in A673 cells treated with BO-1055 we performed Annexin V-APC/7-AAD staining assays. Early apoptosis was defined as the presence of Annexin V-positive and 7-AAD-negative cells. Late apoptosis was defined as Annexin V-positive and 7-AAD-positive cells. Total percent apoptosis was defined as the sum of early and late apoptotic cells as a percentage of the total cell number. BO-1055 induces apoptosis in the A673 cell line in a time-concentration dependent manner (Figure 3B). Around 50 % of treated cells entered apoptosis after 48 h at concentrations of 1μM.
Cell viability and apoptosis were determined using 7-AAD (BD Pharmingen, San Diego, CA) and Annexin V-APC (BD Pharmingen, San Diego, CA) staining according to the instructions provided by the manufacturer and as previously published. Cell cycle fractions were determined by propidium iodide nuclear staining. Briefly, cells were harvested, washed in PBS, fixed with 70% ethanol, and incubated with propidium iodide/RNase buffer (BD Biosciences, San Diego, CA) for 15 minutes at room temperature. Data was collected on BD LSR Fortessa fluorescence-activated cell analyzer using BD FACS Diva software and analyzed using FlowJo version 9.6 software (Tree Star, Inc. Ashland, OR). Cell cycle analysis was done by applying the Dean/Jett/Fox cell cycle model using FlowJo software.

[15] = tested on: cord blood CD34+ cells; assay: Comet assay; format: cell-based, human; conditions: 3h
Method: We used comet assay, which includes single cell gel electrophoresis to assess DNA breaks when exposed to radiation or DNA damaging agents. […] Olive moment (micrometers), a product of tail DNA% and the distance between the centroids of head and tail, is an accurate parameter of DNA damage. […] Gamma-H2AX (γH2AX) phosphorylation is the initial step in DNA damage response following double stranded breaks and is responsible for recruiting DNA repair proteins.
Comet assay was performed according to the protocol described earlier. Cells were treated with BO-1055 at 2μM concentration for 3h, or immediately after exposure to 8Gy radiation after which they were isolated and mixed with 1% low melting point agarose in a tube. The cells in agarose were transferred to slides coated with normal melting point agarose. The agarose-immobilized cells were lysed in alkaline solution and the agarose trapped DNA was electrophoresed. DNA was stained with ethidium bromide and image acquisition was done immediately. DNA damage quantification was performed using OpenComet v1.3, an open-source software plugin in Image J 1.47v software (NIH, USA) for automated analysis. Olive moment, which is the product of tail DNA% and the distance between the intensity-weighted centroids of head and tail was taken from the output for analysis.

[16] = tested on: A673 cells; assay: Drug combination study (Alamar Blue, Chou-Talalay combination index); format: cell-based, human
Method: The AlamarBlue® cell proliferation assay was used to test the effect of a single drug and a combination of drugs. A673 cells (5 × 10^3 cells/well) were added to 96 well plates in triplicate. After 12h incubation, BO-1055 and a second drug (Topotecan, SN38, Doxorubicin or PU-H71) were added simultaneously in a lattice format in varying concentrations. Plates were read after 72h drug exposure. Combination indices were derived as described below to identify the interaction in two-drug combinations.
as §3

## CN(C)CCNC(=O)c1cccc(NC(=O)Nc2ccc(N(CCCl)CCCl)cc2)c1 [BO-1055]
[1]
  IC50: submicromolar
[2]
  IC50: submicromolar
[3]
  IC50: 80 nM
[4]
  IC50: 520 nM
[5]
  IC50: 2000 to 3000 nM
[6]
  IC50: 250 nM
[7]
  IC50: > 10000 nM
[8]
  IC50: 240 nM
[9]
  IC50: > 10000 nM
[10]
  IC50: 600 nM
[11]
  IC50: > 10000 nM
[12]
  IC50: > 10000 nM
[13]; A673 spheroids in methylcellulose, scored 14 days after plating
  concentration giving complete inhibition of spheroids: 0.5 µM
[13]; BO-1055 vs 4-HC
  fold lower concentration inhibiting A673 spheroids compared to 4-HC: 10 fold
[14]
  treated cells entering apoptosis: Around 50%
[15]
  olive moment relative to radiation (XRT, 8Gy): relatively less
[16]; BO-1055 combined with PU-H71, A673, 72h
  drug interaction (combination index): synergistic
[16]; BO-1055 combined with SN-38, A673, 72h
  drug interaction (combination index): highly synergistic
[16]; BO-1055 combined with doxorubicin, A673, 72h
  drug interaction (combination index): synergistic
[16]; BO-1055 combined with topotecan, A673, 72h
  drug interaction (combination index): synergistic
